In patent US9452986B2, “6-heteroaryloxy- or 6-aryloxy-quinoline-2-carboxamides and method of use” (AbbVie Inc., priority 2014, dated 2016):
Read-outs that look alike come from different tables or passages of the source.

Columns and labels:
recombinant human Nav1.8 = recombinant human Nav1.8 (Homo sapiens (Human), UniProt Q9Y5Y9); assay: FRET-based membrane potential assay, recombinant human sodium channel Nav1.8; type: cell-based
osteoarthritic rats = assay: Osteoarthritic (OA) pain induced by sodium monoiodoacetate (MIA), hind limb grip force; type: in vivo, rat; details: Rattus norvegicus, 480 h, rat, 20 days following MIA injection, hind limb grip force, read-out: OA MPE; for inhibition in vivo at 30 mg/kg: OA dose 30 mg/kg; for inhibition in vivo at 10 mg/kg: OA dose 10 mg/kg
Procedure: Osteoarthritic (OA) Pain Induced by Sodium Monoiodoacetate (MIA)
Pain behavior was assessed by measurement of hind limb grip force (GF) in adult osteoarthritic rats. Male Sprague Dawley rats, obtained from Charles River Laboratories, (Wilmington, Mass.), weighing 150-175 g, were injected in the unilateral knee join with a single intra-articular injection of sodium monoiodoacetate (MIA, 3 mg/rat). All rats were tested at 20 days following MIA injection. A behavioral measure of activity-induced pain was carried out. Measurements of the peak hind limb grip force were conducted by recording the maximum compressive force (CFmax), in grams of force, exerted on a hind limb strain gauge setup, in a commercially available grip force measurement system (Columbus Instruments, Columbus, Ohio).
During testing, each rat was gently restrained by grasping it around its rib cage and then allowed to grasp the wire mesh frame attached to the strain gauge. The experimenter then moved the animal in a rostral-to-caudal direction until the grip was broken. Each rat was sequentially tested twice at an approximately 2-3 minute interval to obtain a raw mean grip force (CFmax). This raw mean grip force data was in turn converted to a maximum hindlimb cumulative compressive force (CFmax), as the grams of force/kg of body weight, for each animal.
For evaluating the compound effects, the hind limb grip force was conducted 20 days following the intra-articular injection of MIA. A group of age-matched naïve (not injected with MIA) animals was added as a comparator to the drug-dosed groups. The vehicle control response for each group of MIA-treated animals was defined as the 0% response (0% effect), whereas the naïve control group was defined as the normal response and as 100% effect. The % effect for each dose group was expressed as % return of response to normalcy, compared to the naïve group. A percent maximal possible effect (% MPE) of testing compound was calculated according to the formula: (Treatment CFmax−Vehicle CFmax)/Vehicle CFmax]×100). Higher % effect numbers indicate increased relief from the pain in the model, with 100% indicating a return to the level of response seen in normal (non-osteoarthritic) animals. All experiments evaluating drug effects in this model were conducted in a randomized blinded fashion.
The animals were housed in Association for Assessment and Accreditation of Laboratory Animal Care (AAALAC) approved facilities at AbbVie Inc. in a temperature-regulated environment under a controlled 12-hour light-dark cycle, with lights on at 6:00 a.m. Food and water were available ad libitum at all times except during testing. All testing was done following procedures outlined in protocols approved by AbbVie Inc.'s Institutional Animal Care and Use Committee.

recombinant human Nav1.7 = recombinant human Nav1.7 (Homo sapiens (Human), UniProt Q15858); assay: FRET-based membrane potential assay, recombinant human sodium channel Nav1.7; type: cell-based; details: read-out: FRET-Membrane Potential Nav1.7 IC50
Outline: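 Channel activation used veratridine at its EC80, set by a dilution curve each experiment, together with Leiurus scorpion venom, added 3 min after compound. Membrane-potential ratio signals from FLIPR Tetra in HEPES-buffered HBSS were fitted to a four-parameter Hill equation for percent inhibition and IC50.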

[1] = HEK293 cells stably expressing recombinant human Nav1.8, veratridine + scorpion venom depolarization
[2] = HEK293 cells stably expressing recombinant human Nav1.7, veratridine + scorpion venom depolarization

recombinant human Nav1.7, sequence (Q15858 whole entry): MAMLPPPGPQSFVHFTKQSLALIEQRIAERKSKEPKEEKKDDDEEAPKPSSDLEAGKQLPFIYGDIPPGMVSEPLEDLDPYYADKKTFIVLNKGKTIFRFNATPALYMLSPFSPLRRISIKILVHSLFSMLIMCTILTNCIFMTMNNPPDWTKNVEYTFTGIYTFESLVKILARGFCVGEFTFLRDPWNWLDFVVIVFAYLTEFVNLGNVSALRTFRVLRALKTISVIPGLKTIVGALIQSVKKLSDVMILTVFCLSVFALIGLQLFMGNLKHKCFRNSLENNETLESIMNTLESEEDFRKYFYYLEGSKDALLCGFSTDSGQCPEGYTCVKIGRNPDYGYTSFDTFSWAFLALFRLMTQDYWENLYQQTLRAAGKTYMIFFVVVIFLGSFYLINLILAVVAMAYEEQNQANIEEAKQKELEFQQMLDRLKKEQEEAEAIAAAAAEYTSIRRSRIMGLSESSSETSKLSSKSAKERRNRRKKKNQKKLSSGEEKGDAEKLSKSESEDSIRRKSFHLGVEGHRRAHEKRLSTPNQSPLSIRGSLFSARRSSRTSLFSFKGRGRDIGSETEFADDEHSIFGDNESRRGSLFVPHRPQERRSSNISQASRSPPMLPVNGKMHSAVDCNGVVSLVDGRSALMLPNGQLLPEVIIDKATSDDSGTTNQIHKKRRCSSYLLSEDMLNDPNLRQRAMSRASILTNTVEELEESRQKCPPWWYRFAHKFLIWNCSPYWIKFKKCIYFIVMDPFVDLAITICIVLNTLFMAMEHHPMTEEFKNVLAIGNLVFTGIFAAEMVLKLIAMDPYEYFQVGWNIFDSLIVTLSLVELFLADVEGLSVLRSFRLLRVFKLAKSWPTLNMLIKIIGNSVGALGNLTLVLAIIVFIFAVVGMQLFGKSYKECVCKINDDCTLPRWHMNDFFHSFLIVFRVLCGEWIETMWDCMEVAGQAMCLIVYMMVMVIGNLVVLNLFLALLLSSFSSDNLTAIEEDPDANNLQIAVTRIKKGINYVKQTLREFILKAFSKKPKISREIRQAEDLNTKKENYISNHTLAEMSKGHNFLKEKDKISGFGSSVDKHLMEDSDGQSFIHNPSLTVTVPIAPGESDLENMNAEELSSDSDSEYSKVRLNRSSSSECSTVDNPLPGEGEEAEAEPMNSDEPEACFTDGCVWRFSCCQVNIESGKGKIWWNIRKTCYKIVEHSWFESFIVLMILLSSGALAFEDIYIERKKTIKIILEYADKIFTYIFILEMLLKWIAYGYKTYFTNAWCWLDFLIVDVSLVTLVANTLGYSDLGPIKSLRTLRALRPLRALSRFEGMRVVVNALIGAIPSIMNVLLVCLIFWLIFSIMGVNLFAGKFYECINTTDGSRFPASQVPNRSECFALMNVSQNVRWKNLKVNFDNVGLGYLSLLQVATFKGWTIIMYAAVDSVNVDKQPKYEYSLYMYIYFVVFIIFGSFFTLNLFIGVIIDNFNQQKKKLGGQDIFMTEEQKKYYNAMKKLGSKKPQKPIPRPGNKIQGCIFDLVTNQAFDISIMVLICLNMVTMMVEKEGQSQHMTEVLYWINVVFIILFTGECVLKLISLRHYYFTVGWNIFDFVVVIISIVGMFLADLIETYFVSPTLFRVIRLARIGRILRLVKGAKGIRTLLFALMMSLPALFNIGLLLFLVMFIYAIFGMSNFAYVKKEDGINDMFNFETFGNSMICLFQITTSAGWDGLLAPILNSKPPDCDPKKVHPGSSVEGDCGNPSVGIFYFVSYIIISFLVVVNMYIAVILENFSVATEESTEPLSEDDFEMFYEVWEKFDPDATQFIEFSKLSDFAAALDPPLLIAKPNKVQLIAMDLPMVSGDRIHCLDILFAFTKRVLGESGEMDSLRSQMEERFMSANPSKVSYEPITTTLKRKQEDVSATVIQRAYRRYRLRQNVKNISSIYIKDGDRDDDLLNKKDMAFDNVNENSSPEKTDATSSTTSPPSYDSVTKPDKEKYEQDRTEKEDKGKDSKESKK
recombinant human Nav1.8, sequence (Q9Y5Y9 whole entry): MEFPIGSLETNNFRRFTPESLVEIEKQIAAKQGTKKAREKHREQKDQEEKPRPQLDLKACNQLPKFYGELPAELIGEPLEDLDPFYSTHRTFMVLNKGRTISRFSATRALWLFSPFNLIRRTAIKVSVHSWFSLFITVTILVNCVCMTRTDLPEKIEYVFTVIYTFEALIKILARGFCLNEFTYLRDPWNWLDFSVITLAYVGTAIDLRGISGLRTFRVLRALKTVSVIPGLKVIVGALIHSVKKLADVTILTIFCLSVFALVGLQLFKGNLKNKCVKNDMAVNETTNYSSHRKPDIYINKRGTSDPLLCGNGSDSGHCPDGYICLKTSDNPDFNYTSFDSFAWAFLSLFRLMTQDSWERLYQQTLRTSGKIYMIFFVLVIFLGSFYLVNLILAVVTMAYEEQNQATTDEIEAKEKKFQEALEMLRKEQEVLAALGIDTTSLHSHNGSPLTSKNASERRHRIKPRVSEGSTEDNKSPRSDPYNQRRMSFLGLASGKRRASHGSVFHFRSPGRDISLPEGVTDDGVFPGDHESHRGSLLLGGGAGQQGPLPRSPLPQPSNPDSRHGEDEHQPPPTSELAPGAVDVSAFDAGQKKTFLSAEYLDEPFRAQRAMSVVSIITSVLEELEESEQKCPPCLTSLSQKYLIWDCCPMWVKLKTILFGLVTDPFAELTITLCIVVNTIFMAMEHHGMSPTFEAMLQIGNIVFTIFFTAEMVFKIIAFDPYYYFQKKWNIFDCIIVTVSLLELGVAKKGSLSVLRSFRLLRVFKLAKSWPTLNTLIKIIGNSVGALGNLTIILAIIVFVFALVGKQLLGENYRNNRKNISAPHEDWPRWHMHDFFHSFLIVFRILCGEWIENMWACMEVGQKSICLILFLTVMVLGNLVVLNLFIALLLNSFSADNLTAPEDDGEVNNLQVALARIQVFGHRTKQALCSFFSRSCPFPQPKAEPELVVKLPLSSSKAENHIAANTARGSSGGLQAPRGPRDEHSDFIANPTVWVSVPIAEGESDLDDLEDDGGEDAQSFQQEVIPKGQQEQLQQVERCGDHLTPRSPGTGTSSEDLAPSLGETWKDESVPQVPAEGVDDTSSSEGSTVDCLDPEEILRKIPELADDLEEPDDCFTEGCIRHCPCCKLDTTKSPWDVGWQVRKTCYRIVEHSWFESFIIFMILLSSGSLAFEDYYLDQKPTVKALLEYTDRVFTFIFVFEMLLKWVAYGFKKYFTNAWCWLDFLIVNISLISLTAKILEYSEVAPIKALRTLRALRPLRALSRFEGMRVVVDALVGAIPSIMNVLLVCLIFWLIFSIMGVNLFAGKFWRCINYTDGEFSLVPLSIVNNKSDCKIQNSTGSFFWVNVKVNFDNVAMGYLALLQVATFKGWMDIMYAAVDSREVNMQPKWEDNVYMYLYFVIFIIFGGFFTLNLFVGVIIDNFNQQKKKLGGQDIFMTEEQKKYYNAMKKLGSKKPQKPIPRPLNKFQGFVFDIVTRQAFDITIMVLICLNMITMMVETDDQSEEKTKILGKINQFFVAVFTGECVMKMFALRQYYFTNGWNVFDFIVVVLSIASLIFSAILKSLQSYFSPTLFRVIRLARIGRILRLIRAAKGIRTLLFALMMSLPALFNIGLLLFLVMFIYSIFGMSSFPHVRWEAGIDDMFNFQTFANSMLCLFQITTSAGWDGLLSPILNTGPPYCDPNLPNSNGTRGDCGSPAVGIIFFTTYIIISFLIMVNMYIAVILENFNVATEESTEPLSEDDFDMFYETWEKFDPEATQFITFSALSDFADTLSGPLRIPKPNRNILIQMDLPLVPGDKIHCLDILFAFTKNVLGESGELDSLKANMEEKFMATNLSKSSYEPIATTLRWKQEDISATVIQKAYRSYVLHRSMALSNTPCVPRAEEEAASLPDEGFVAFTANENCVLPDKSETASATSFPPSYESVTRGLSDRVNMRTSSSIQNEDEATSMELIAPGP

Row | SMILES | IC50 (recombinant human Nav1.8; [1]) [µM] | inhibition in vivo at 30 mg/kg (osteoarthritic rats) [%] | IC50 (recombinant human Nav1.7; [2]) [µM] | IC50 (recombinant human Nav1.8) [µM] | inhibition in vivo at 10 mg/kg (osteoarthritic rats) [%] | IC50 (recombinant human Nav1.7) [µM]
1 | O=C(NCC(F)(F)F)c1ccc2cc(Oc3ccc(C(F)F)cn3)ccc2n1 [Example 436, 6-{[5-(difluoromethyl)pyridin-2-yl]oxy}-N-(2,2,2-trifluoroethyl)quinoline-2-carboxamide] | 3.42 | 51 | 1.74 | – | – | –
2 | COC[C@@H]1CN(C(=O)c2ccc3cc(Oc4ccc(C(F)(F)F)nc4)ccc3n2)CCN1 [Example 64, [(3S)-3-(methoxymethyl)piperazin-1-yl](6-{[6-(trifluoromethyl)pyridin-3-yl]oxy}quinolin-2-yl)methanone] | – | – | 0.382 | 0.491 | 29 | –
3 | NC1CN(C(=O)c2ccc3cc(Oc4ccc(C(F)(F)F)nc4)ccc3n2)C1 [Example 66, (3-amino azetidin-1-yl)(6-{[6-(trifluoromethyl)pyridin-3-yl]oxy}quinolin-2-yl)methanone] | – | 52 | 0.883 | 1.18 | – | –
4 | C[C@@H]1CN(C(=O)c2ccc3cc(Oc4ccc(C(F)(F)F)nc4)ccc3n2)CCN1 [Example 62, [(3R)-3-methylpiperazin-1-yl](6-{[6-(trifluoromethyl)pyridin-3-yl]oxy}quinolin-2-yl)methanone] | 0.12 | – | 0.5 | – | -1 | –
5 | O=C(c1ccc2cc(Oc3ccc(C(F)(F)F)cn3)ccc2n1)N1CCNCC(F)(F)C1 [Example 417, (6,6-difluoro-1,4-diazepan-1-yl)(6-{[5-(trifluoromethyl)pyridin-2-yl]oxy}quinolin-2-yl)methanone] | 2.75 | – | – | – | – | 11.5
6 | O=C(c1ccc2cc(Oc3ccc(C(F)(F)F)cn3)ccc2n1)N1CC(NCC(F)(F)F)C1 [Example 621, {3-[(2,2,2-trifluoroethyl)amino]azetidin-1-yl}(6-{[5-(trifluoromethyl)pyridin-2-yl]oxy}quinolin-2-yl)methanone] | 1.65 | – | 2.69 | – | – | –
7 | O=C(c1ccc2cc(Oc3ccc(C(F)(F)F)cn3)ccc2n1)N1CC2(CCOCC2)C1 [Example 623, 7-oxa-2-azaspiro[3.5]non-2-yl(6-{[5-(trifluoromethyl)pyridin-2-yl]oxy}quinolin-2-yl)methanone] | 3.7 | – | 4.91 | – | – | –
8 | O=C(NCC(=O)N1CCCC1)c1ccc2cc(Oc3ccc(C(F)(F)F)cn3)ccc2n1 [Example 44, N-[2-oxo-2-(pyrrolidin-1-yl)ethyl]-6-{[5-(trifluoromethyl)pyridin-2-yl]oxy}quinoline-2-carboxamide] | – | – | – | 0.937 | 42 | –
9 | CN1CCC(N(C)C(=O)c2ccc3cc(Oc4ccc(C(F)(F)F)cn4)ccc3n2)CC1=O (stereo not drawn) [Example 529, N-methyl-N-(1-methyl-2-oxopiperidin-4-yl)-6-{[5-(trifluoromethyl)pyridin-2-yl]oxy}quinoline-2-carboxamide] | > 20 | – | – | – | – | 10.3
10 | O=C1C[C@H](NC(=O)c2ccc3cc(Oc4ccc(C(F)(F)F)cn4)ccc3n2)CCN1 [Example 521, N-[(4R)-2-oxopiperidin-4-yl]-6-{[5-(trifluoromethyl)pyridin-2-yl]oxy}quinoline-2-carboxamide] | 1.1 | – | – | – | – | 2.63
11 | O=C1C[C@@H](NC(=O)c2ccc3cc(Oc4ccc(C(F)(F)F)cn4)ccc3n2)CCN1 [Example 512, N-[(4S)-2-oxopiperidin-4-yl]-6-{[5-(trifluoromethyl)pyridin-2-yl]oxy}quinoline-2-carboxamide] | 0.213 | – | – | – | – | 0.983
12 | O=C(c1ccc2cc(Oc3ccc(C(F)(F)F)cn3)ccc2n1)N1CCNC[C@@H]1C(F)F [Example 603, [(2R)-2-(difluoromethyl)piperazin-1-yl](6-{[5-(trifluoromethyl)pyridin-2-yl]oxy}quinolin-2-yl)methanone] | 3.67 | – | – | – | – | 1.95
13 | CO[C@H]1C[C@@H](NC(=O)c2ccc3cc(Oc4ccc(C(F)(F)F)cn4)ccc3n2)C1 [Example 41, N-(cis-3-methoxycyclobutyl)-6-{[5-(trifluoromethyl)pyridin-2-yl]oxy}quinoline-2-carboxamide] | – | – | 1.27 | – | 67 | –
14 | O=C(c1ccc2cc(Oc3ccc(C(F)(F)F)cn3)ccc2n1)N1CCN[C@@H](CO)C1 [Example 17, [(3R)-3-(hydroxymethyl)piperazin-1-yl](6-{[5-(trifluoromethyl)pyridin-2-yl]oxy}quinolin-2-yl)methanone] | – | – | – | – | 19 | 3.12
15 | O=C(NC1CC(=O)N(c2ccc(F)cc2)C1)c1ccc2cc(Oc3ccc(C(F)(F)F)cn3)ccc2n1 (stereo not drawn) [Example 54, N-[1-(4-fluorophenyl)-5-oxopyrrolidin-3-yl]-6-{[5-(trifluoromethyl)pyridin-2-yl]oxy}quinoline-2-carboxamide] | – | – | 0.409 | – | 21 | –
16 | CC(C)(O)CNC(=O)c1ccc2cc(Oc3ccc(C(F)(F)F)cn3)ccc2n1 [Example 30, N-(2-hydroxy-2-methylpropyl)-6-{[5-(trifluoromethyl)pyridin-2-yl]oxy}quinoline-2-carboxamide] | – | – | 0.793 | – | 66 | –
17 | N#CC1CN(C(=O)c2ccc3cc(Oc4ccc(C(F)(F)F)cn4)ccc3n2)CCN1 (stereo not drawn) [Example 483, 4-[(6-{[5-(trifluoromethyl)pyridin-2-yl]oxy}quinolin-2-yl)carbonyl]piperazine-2-carbonitrile] | – | – | – | – | 55 | 3.61
18 | O=C(NC1CC(F)(F)C1)c1ccc2cc(Oc3ccc(C(F)F)cn3)ccc2n1 [Example 580, N-(3,3-difluorocyclobutyl)-6-{[5-(difluoromethyl)pyridin-2-yl]oxy}quinoline-2-carboxamide] | 1.14 | – | – | – | – | 1.56
19 | COCC1CN(C(=O)c2ccc3cc(Oc4ccc(C(F)(F)F)cn4)ccc3n2)C1 [Example 60, [3-(methoxymethyl)azetidin-1-yl](6-{[5-(trifluoromethyl)pyridin-2-yl]oxy}quinolin-2-yl)methanone] | – | – | 1.26 | – | 23 | –
20 | O=C(NCCN1CCOCC1)c1ccc2cc(Oc3ccc(C(F)(F)F)cn3)ccc2n1 [Example 21, N-[2-(morpholin-4-yl)ethyl]-6-{[5-(trifluoromethyl)pyridin-2-yl]oxy}quinoline-2-carboxamide] | – | – | 0.529 | – | 35 | –
21 | O=C(N[C@@H]1CCS(=O)(=O)C1)c1ccc2cc(Oc3ccc(C(F)(F)F)cn3)ccc2n1 [Example 5, N-[(3R)-1,1-dioxidotetrahydrothiophen-3-yl]-6-{[5-(trifluoromethyl)pyridin-2-yl]oxy}quinoline-2-carboxamide] | – | 27 | 0.262 | – | – | –
22 | O=C(NC1CCS(=O)(=O)CC1)c1ccc2cc(Oc3ccc(C(F)(F)F)cn3)ccc2n1 [Example 15, N-(1,1-dioxidotetrahydro-2H-thiopyran-4-yl)-6-{[5-(trifluoromethyl)pyridin-2-yl]oxy}quinoline-2-carboxamide] | – | – | 1.09 | – | 52 | –
23 | O=C(c1ccc2cc(Oc3ccc(C(F)(F)F)cn3)ccc2n1)N1CC(=O)N2CCC[C@H]2C1 [Example 27, (8aS)-2-[(6-{[5-(trifluoromethyl)pyridin-2-yl]oxy}quinolin-2-yl)carbonyl]hexahydropyrrolo[1,2-a]pyrazin-4(1H)-one] | – | – | 1.1 | – | 49 | –
24 | CN(CC(F)F)C(=O)c1ccc2cc(Oc3ccc(C(F)(F)F)cn3)ccc2n1 [Example 622, N-(2,2-difluoroethyl)-N-methyl-6-{[5-(trifluoromethyl)pyridin-2-yl]oxy}quinoline-2-carboxamide] | 2.28 | – | – | – | – | 5.4
25 | O=C(NC1CC[S+]([O-])CC1)c1ccc2cc(Oc3ccc(C(F)(F)F)cn3)ccc2n1 (stereo not drawn) [Example 32, N-(1-oxidotetrahydro-2H-thiopyran-4-yl)-6-{[5-(trifluoromethyl)pyridin-2-yl]oxy}quinoline-2-carboxamide] | – | – | – | – | 23 | 0.535
